# Data reported in patent US20190282566A1, “USE OF FLIBANSERIN IN THE TREATMENT OF OBESITY” (Sprout Pharmaceuticals, Inc., priority 2005, published 2019).
# How the values were obtained:
# [1] = test system: 5-HT2-receptor family; details: cited from earlier work
# [2] = 13-week dietary admixture study in rats, body weight; assay type: in vivo
# Method: To test the efficacy of Flibanserin in the treatment of obesity groups of the rats per sex per group (gang-housed) received Flibnanserin at dosages of 0 (control), 100, 200, and 600 mg/kg/day via dietary admixture. The test compound was mixed with the food to obtain a 3% premix. This premix was prepared in week −1 and drug week 7 and was used to prepare the substance/food mixtures for all individual groups. The substance/food concentration was calculated using the mean daily food intake from the study week before. The substance/food mixture was made weekly for every dose group and stored under darkness in the animal room. The concentration, homogeneity and stability of the test substance in the food was checked during study week 2 with reanalysis one and four weeks later. One further check of concentration and homogeneity was performed in week 13. The body weight of each animal was determined and recorded once a week including the pretest acclimation period, in the morning on the same day of the week.
# The following tables presents the results of the above described experiments as absolute body weights at start of treatment (week −1) as well as in drug week 6 and 13, including percentage change compared to controls. (in parentheses).
# [3] = target: T1, 5-HT1A receptor (Homo sapiens, UniProt P08908); details: cited from earlier work
# T1 sequence (P08908 1-422): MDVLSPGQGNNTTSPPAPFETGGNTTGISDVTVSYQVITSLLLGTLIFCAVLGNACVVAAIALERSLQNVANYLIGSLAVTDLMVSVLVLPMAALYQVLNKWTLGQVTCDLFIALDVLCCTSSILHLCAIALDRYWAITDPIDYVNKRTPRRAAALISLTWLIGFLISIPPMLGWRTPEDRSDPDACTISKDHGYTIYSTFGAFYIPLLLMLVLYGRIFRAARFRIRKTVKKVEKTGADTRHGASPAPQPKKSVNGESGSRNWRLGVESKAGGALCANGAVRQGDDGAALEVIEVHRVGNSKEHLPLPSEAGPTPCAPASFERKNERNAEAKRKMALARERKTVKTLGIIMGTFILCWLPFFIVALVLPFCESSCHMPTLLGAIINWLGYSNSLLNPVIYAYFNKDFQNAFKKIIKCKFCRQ
# [4] = female rats, 100 mg/kg/day via diet, drug week 6
# [5] = female rats, 100 mg/kg/day via diet, drug week 13
# [6] = female rats, 100 mg/kg/day via diet, drug week −1 (start of treatment)
# [7] = female rats, 200 mg/kg/day via diet, drug week 6
# [8] = female rats, 200 mg/kg/day via diet, drug week 13
# [9] = female rats, 200 mg/kg/day via diet, drug week −1 (start of treatment)
# [10] = female rats, 600 mg/kg/day via diet, drug week 6
# [11] = female rats, 600 mg/kg/day via diet, drug week 13
# [12] = female rats, 600 mg/kg/day via diet, drug week −1 (start of treatment)
# [13] = male rats, 100 mg/kg/day via diet, drug week 6
# [14] = male rats, 100 mg/kg/day via diet, drug week 13
# [15] = male rats, 100 mg/kg/day via diet, drug week −1 (start of treatment)
# [16] = male rats, 200 mg/kg/day via diet, drug week 6
# [17] = male rats, 200 mg/kg/day via diet, drug week 13
# [18] = male rats, 200 mg/kg/day via diet, drug week −1 (start of treatment)
# [19] = male rats, 600 mg/kg/day via diet, drug week 6
# [20] = male rats, 600 mg/kg/day via diet, drug week 13
# [21] = male rats, 600 mg/kg/day via diet, drug week −1 (start of treatment)
compound,measurement,setting,value
"O=c1[nH]c2ccccc2n1CCN1CCN(c2cccc(C(F)(F)F)c2)CC1 [BIMT 17 BS, 1-[2-(4-(3-trifluoromethyl-phenyl)piperazin-1-yl)ethyl]-2,3-dihydro-1H-benzimidazol-2-one]",affinity for the 5-HT2-receptor family,[1],shows affinity
same,Mean absolute body weight,[2]; [4],213.6 grams
same,percent change to controls (body weight),[2]; [4],−6.8%
same,Mean absolute body weight,[2]; [5],234.5 grams
same,percent change to controls (body weight),[2]; [5],−10.3%
same,Mean absolute body weight,[2]; [6],141.3 grams
same,percent change to controls (body weight),[2]; [6],+0.1%
same,Mean absolute body weight,[2]; [7],209.7 grams
same,percent change to controls (body weight),[2]; [7],−8.5%
same,Mean absolute body weight,[2]; [8],234.9 grams
same,percent change to controls (body weight),[2]; [8],−10.2%
same,Mean absolute body weight,[2]; [9],142.2 grams
same,percent change to controls (body weight),[2]; [9],+0.7%
same,Mean absolute body weight,[2]; [10],196.0 grams
same,percent change to controls (body weight),[2]; [10],−14.4%
same,Mean absolute body weight,[2]; [11],225.8 grams
same,percent change to controls (body weight),[2]; [11],−13.7%
same,Mean absolute body weight,[2]; [12],140.7 grams
same,percent change to controls (body weight),[2]; [12],−0.4%
same,difference compared to controls at study end (body weight decrease),"[2]; females, 100 mg/kg/day",10%
same,difference compared to controls at study end (body weight decrease),"[2]; females, 200 mg/kg/day",10%
same,difference compared to controls at study end (body weight decrease),"[2]; females, 600 mg/kg/day",14%
same,Mean absolute body weight,[2]; [13],340.9 grams
same,percent change to controls (body weight),[2]; [13],−7.4%
same,Mean absolute body weight,[2]; [14],397.4 grams
same,percent change to controls (body weight),[2]; [14],−9.8%
same,Mean absolute body weight,[2]; [15],188.1 grams
same,percent change to controls (body weight),[2]; [15],−1.7%
same,Mean absolute body weight,[2]; [16],340.4 grams
same,percent change to controls (body weight),[2]; [16],−7.5%
same,Mean absolute body weight,[2]; [17],400.9 grams
same,percent change to controls (body weight),[2]; [17],−9.0%
same,Mean absolute body weight,[2]; [18],189.3 grams
same,percent change to controls (body weight),[2]; [18],−1.0%
same,Mean absolute body weight,[2]; [19],284.8 grams
same,percent change to controls (body weight),[2]; [19],−22.7%
same,Mean absolute body weight,[2]; [20],333.2 grams
same,percent change to controls (body weight),[2]; [20],−24.3%
same,Mean absolute body weight,[2]; [21],186.8 grams
same,percent change to controls (body weight),[2]; [21],−2.4%
same,difference compared to controls at study end (body weight decrease),"[2]; males, 100 mg/kg/day",10%
same,difference compared to controls at study end (body weight decrease),"[2]; males, 200 mg/kg/day",9%
same,difference compared to controls at study end (body weight decrease),"[2]; males, 600 mg/kg/day",24%
same,body weight gain of males and females,"[2]; rats, 100, 200 and 600 mg/kg/day via diet, in almost all drug weeks, versus controls",significantly decreased
same,affinity for the 5-HT1A receptor,[3],shows affinity
